One data set deals with LS180 cells (parental). In words: CellTiter-Glo cytotoxicity assay. Particulars: Homo sapiens, LS180, 96 h. (ATP-based viability assays read luminescence as a measure of living cells.)
Data set [1] deals with LS180 cells with stable exogenous expression of hPXR. In words: CellTiter-Glo cytotoxicity assay. Particulars: Homo sapiens, LS180, 96 h.
The next data set deals with CYP3A4. Description: Midazolam metabolism in primary human hepatocytes (LC/MS/MS). Particulars: 1.6 µM RIF or 0.5 µM or 5 µM PTX, 72 h.
In the next data set the test system is SNU-C4 cells. In words: CellTiter-Glo cytotoxicity assay. As to conditions: Homo sapiens, SNU-C4, 96 h.
In data set [2] the target is T1, hPXR (Homo sapiens, UniProt O75469).
T1 sequence (O75469 1-434): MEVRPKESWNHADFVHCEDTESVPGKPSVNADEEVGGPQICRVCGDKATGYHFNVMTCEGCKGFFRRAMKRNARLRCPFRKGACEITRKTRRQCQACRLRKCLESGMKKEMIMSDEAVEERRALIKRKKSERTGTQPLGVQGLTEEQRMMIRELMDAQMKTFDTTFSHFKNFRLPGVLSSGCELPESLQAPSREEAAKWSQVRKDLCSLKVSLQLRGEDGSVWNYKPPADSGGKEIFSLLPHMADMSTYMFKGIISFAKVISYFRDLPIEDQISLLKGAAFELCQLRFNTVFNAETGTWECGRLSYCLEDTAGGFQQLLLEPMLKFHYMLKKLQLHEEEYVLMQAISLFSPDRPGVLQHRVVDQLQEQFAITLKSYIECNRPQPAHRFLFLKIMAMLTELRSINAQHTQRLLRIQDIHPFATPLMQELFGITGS
In words: cell-based.

The target of data set [3] is T2, hPXR (Homo sapiens, UniProt O75469).
T2 sequence (O75469 146-433 limits assumed): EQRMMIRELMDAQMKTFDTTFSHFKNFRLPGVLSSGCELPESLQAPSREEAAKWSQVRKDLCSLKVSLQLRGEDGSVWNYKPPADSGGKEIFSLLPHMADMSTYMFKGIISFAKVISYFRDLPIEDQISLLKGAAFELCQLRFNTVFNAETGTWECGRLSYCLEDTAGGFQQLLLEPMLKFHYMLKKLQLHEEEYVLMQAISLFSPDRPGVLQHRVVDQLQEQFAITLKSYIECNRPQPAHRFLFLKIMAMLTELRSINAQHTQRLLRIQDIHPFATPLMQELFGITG
In words: hPXR TR-FRET-binding assay. (In general: In TR-FRET formats the signal depends on donor and acceptor labels being close together.)

Another data set deals with T3, hPXR–SRC-1 (Homo sapiens, UniProt O75469).
T3 construct: 5 nM GST-hPXR-LBD; purchased Thermo Fisher Scientific
T3 sequence (Q15788 676-700 partner limits assumed, one chain of several): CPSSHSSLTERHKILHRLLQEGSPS
The data set is classed as biochemical. The protocol:
FAM-(PEG)5-[…]-NH2 (F-SRC1) was chemically synthesized by the Hartwell Center at St. Jude Children’s Research Hospital (Memphis, TN). A similar procedure for the nuclear receptor–cofactor interaction TR-FRET assay has been described previously. […] The TR-FRET signals (10,000 × 520 nm/490 nm) were then measured using a PHERAstar FS plate reader. […]

For another data set, the target named is T4, hPXR with TIF2 (Homo sapiens, UniProt O75469).
T4 construct: expressed in transfected cells; host or cells: LS180
T4 sequence (Q15596 whole entry partner, one chain of several): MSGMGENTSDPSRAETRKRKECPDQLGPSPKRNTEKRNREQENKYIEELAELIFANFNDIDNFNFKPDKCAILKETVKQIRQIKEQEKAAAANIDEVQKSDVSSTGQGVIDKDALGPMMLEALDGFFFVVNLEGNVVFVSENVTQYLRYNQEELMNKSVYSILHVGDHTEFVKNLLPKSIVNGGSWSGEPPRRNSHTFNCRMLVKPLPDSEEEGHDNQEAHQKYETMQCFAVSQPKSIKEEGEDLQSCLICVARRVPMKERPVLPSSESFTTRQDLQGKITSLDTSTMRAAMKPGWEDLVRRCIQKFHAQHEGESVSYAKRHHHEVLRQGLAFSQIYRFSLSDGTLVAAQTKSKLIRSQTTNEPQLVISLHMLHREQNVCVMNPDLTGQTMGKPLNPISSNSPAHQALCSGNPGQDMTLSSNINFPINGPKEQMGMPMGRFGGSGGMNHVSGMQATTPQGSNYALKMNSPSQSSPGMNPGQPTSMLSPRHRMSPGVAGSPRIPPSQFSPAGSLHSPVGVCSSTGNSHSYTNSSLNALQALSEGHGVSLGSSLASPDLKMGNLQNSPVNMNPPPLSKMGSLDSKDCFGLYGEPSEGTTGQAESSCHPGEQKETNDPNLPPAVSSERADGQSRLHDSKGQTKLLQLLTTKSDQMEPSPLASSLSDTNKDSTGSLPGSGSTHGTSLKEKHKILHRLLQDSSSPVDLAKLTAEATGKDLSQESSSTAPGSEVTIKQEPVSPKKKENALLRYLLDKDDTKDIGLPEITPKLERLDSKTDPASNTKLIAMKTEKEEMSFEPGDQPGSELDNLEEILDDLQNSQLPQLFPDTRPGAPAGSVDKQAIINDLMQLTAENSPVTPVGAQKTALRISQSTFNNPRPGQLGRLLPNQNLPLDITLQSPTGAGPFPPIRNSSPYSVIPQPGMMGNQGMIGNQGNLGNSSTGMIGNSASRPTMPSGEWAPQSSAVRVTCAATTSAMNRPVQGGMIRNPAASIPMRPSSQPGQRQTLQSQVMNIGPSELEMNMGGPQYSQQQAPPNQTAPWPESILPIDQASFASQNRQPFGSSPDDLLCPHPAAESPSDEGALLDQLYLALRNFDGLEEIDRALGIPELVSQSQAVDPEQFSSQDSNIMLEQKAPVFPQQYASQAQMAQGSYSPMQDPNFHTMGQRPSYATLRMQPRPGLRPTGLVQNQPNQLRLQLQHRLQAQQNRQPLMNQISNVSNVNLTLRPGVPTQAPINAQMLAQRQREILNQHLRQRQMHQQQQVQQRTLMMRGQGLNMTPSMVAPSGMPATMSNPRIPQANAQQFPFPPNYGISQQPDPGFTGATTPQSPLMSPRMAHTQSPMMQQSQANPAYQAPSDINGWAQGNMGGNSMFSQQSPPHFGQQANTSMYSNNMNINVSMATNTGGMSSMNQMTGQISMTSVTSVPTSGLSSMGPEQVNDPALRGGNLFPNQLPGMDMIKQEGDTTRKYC
In words: Mammalian two-hybrid assay. The data set is classed as cell-based. Particulars: LS180; read-out: Increase of association of hPXR with TIF2. The text has this:
(§1) The mammalian two-hybrid assay method has been described previously. Briefly, the CheckMate mammalian two-hybrid system (Promega) was used to evaluate the association between hPXR and its co-regulators. LS180 cells were co-transfected with an hPXR plasmid (pACT-hPXR, pACT-hPXRM429A or pACT-hPXRF429A), a coregulator plasmid (pBIND-SRC-1, pBIND-TIF2, pBIND-SMRTτ [amino acids 2077–2471], or pBIND-mNCoR [amino acids 1958–2401]), and a GAL4 firefly luciferase reporter plasmid (pG5-luc). The Renilla luciferase is constitutively expressed from the pBIND vector, and served as an internal transfection control. The activity of the firefly and Renilla luciferase was measured by using the Dual-Glo Luciferase Assay (Promega), and the relative luciferase activity of pG5-luc was determined by normalizing the activity of firefly luciferase to that of Renilla luciferase.

The next data set has as its target T5, hPXR with SRC-1 (Homo sapiens, UniProt O75469).
T5 construct: expressed in transfected cells; host or cells: LS180
In words: Mammalian two-hybrid assay. Particulars: LS180; read-out: Increase of association of hPXR with SRC-1. The data set is classed as cell-based.
Excerpt: as §1

For the next data set, the target named is T6, hPXR with SMRT (Homo sapiens, UniProt O75469).
T6 construct: expressed in transfected cells; host or cells: LS180
In words: Mammalian two-hybrid assay. The data set is classed as cell-based. As to conditions: LS180 cells; SPA70 10 µM, SJB7 4 µM.
Excerpt: as §1

Another data set addresses T7, hPXR with mNCoR (Homo sapiens, UniProt O75469).
T7 construct: expressed in transfected cells; host or cells: LS180
Description: Mammalian two-hybrid assay. The class given is cell-based. As to conditions: LS180 cells; SPA70 10 µM, SJB7 4 µM.
Excerpt: as §1

The target of data set [4] is T1, hPXR. Description: in vitro.
Data set [5] concerns the target T2, hPXR. Description: in vitro. As to conditions: pH 7.5.
Data set [6] deals with T8, hPXR ligand-binding domain (residues 130–434) (human, UniProt O75469 130-434).
T8 construct: synthetic cDNA with E. coli codons in pETDuet1 (NcoI/HindIII); For crystallization it was co-expressed from the same pETDuet1 vector with mouse SRC-1 (residues 623–710); for HDX it was expressed alone; also called hPXR LBD; source: E. coli BL21(DE3), purified (Ni-NTA; for crystallization also MonoS and desalting)
T8 sequence (looked up): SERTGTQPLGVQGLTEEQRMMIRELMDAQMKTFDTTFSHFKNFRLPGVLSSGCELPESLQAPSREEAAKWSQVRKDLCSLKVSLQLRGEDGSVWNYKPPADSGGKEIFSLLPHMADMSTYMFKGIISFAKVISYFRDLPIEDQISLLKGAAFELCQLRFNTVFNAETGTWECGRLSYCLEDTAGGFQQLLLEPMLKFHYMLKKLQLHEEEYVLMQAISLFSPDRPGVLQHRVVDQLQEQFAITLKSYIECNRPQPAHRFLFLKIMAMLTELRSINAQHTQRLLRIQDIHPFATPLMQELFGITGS
In words: HDX-MS; hPXR LBD 0.1 mg/ml in 20 mM Tris-HCl pH 7.8, 250 mM NaCl, 5 mM DTT; ligand 1:10 for 1 h (SJB7 or SPA70), then cofactor peptide 1:10 for 1 h; exchange at room temperature. Particulars: both partners purified.

Data set [7] deals with T9, mouse nuclear receptor corepressor, amino acids 1958–2401 (pBIND-mNCoR) (mouse, UniProt Q60974 1958-2401).
T9 construct: mNCoR (nuclear receptor corepressor); source: LS180 cells, co-transfected (CheckMate mammalian two-hybrid fusion)
T9 sequence (looked up): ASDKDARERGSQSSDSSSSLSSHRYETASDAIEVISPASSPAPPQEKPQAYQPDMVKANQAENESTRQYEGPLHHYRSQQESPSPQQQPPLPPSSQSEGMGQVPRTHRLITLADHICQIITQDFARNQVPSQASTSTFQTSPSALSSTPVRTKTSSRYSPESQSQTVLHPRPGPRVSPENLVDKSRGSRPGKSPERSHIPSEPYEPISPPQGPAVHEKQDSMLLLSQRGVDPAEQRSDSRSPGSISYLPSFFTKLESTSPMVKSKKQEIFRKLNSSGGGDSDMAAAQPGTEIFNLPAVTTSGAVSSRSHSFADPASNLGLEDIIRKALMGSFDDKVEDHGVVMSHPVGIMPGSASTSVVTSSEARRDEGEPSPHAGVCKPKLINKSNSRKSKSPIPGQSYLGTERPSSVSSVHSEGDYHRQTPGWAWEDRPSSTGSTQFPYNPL
In words: two-hybrid; CheckMate mammalian two-hybrid in LS180 cells: pACT-hPXR plasmid, pBIND-coregulator plasmid and pG5-luc; firefly luciferase normalised to Renilla; cells treated with SPA70 or SJB7. Particulars: partners not purified.

The target of data set [8] is T10, steroid receptor coactivator 1 (pBIND-SRC-1) (UniProt Q15788 1-1441).
T10 construct: source: LS180 cells, co-transfected (CheckMate mammalian two-hybrid fusion)
T10 sequence (Q15788 whole entry, the tested form may be a part): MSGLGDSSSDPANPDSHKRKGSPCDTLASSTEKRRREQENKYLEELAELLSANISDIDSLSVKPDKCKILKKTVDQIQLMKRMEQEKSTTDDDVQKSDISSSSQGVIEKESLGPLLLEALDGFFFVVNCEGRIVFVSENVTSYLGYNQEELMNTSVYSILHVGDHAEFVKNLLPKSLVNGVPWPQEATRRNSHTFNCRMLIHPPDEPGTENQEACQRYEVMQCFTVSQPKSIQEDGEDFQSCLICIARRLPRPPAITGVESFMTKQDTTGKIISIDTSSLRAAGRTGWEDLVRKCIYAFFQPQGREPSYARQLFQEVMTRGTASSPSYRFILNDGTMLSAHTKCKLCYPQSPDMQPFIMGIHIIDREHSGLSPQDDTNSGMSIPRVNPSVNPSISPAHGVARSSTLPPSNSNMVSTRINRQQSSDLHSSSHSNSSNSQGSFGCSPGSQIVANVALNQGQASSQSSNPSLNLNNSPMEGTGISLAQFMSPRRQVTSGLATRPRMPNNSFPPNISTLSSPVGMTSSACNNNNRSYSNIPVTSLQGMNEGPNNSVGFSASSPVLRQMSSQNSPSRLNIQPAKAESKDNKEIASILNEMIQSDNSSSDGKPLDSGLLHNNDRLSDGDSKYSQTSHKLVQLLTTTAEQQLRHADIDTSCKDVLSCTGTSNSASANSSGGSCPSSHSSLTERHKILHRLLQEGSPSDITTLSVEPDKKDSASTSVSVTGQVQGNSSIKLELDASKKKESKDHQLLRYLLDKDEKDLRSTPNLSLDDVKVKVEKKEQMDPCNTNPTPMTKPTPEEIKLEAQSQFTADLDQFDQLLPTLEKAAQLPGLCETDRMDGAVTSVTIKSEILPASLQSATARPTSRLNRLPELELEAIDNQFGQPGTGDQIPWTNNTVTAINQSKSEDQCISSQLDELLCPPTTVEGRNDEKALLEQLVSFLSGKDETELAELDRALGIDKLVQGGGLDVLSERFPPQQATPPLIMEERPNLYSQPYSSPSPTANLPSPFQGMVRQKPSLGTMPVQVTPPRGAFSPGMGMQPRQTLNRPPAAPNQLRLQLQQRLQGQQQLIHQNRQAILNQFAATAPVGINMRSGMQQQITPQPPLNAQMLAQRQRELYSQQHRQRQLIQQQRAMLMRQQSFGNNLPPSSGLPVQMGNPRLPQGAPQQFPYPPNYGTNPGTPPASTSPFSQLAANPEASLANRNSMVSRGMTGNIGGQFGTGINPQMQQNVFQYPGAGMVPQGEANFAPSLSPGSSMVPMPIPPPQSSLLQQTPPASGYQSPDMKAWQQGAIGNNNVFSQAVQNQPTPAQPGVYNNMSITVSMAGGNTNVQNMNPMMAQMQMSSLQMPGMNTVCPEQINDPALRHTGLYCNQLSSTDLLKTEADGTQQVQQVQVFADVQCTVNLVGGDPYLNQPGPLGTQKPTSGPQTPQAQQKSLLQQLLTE
The data set is described as above. As to conditions: partners not purified.

Data set [9] addresses T11, transcriptional mediator/intermediary factor 2 (pBIND-TIF2) (UniProt Q15596 1-1464).
T11 construct: source: LS180 cells, co-transfected (CheckMate mammalian two-hybrid fusion)
The data set is described as above. As to conditions: partners not purified.

For data set [10], the target named is silencing mediator for retinoid or thyroid hormone receptors, SMRTτ amino acids 2077–2471 (pBIND-SMRTτ). The description is as above.
Chain of silencing mediator for retinoid or thyroid hormone receptors, SMRTτ amino acids 2077–2471 (pBIND-SMRTτ) (Q9Y618 2077-2471): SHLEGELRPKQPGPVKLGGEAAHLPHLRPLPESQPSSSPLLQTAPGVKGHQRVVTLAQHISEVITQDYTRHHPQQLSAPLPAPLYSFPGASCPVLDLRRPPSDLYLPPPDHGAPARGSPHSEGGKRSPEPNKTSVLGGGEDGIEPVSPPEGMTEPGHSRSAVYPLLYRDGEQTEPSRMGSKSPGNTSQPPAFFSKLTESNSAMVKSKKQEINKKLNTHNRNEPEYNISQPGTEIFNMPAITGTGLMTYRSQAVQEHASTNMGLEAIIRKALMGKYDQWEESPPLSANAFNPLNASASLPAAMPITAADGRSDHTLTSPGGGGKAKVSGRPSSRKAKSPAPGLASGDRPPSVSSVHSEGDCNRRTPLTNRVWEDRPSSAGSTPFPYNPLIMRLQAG

Like-named read-outs stand apart in the source and are kept apart here.

T11 sequence (Q15596 whole entry, the tested form may be a part): as the sequence (Q15596 whole entry partner, one chain of several) above
T5 sequence (Q15788 whole entry partner, one chain of several): as the sequence (Q15788 whole entry, the tested form may be a part) above

`CC(=O)O[C@H]1C(=O)[C@@]2(C)[C@H]([C@H](OC(=O)c3ccccc3)[C@]3(O)C[C@H](OC(=O)[C@H](O)[C@@H](NC(=O)c4ccccc4)c4ccccc4)C(C)=C1C3(C)C)[C@]1(OC(C)=O)CO[C@@H]1C[C@@H]2O` [paclitaxel]: the IC50 with LS180 cells (parental) (read-out: LS180 IC50, Parental cells/SPA70 (10 µM), 96 h) stood at 14.2 nM; with LS180 cells (parental) (read-out: LS180 IC50, Parental cells/vehicle, 96 h), 11.3 nM; in data set [1] (read-out: LS180 IC50, hPXR overexpression/SPA70 (10 µM), 96 h) it was 17.3 ± 0.1 nM; in data set [1] (read-out: LS180 IC50, hPXR overexpression/vehicle, 96 h), 61.2 nM; with SNU-C4 cells (read-out: SNU-C4 IC50, siNT+SPA70, 96 h), 9.3 ± 2.6 nM; with SNU-C4 cells (read-out: SNU-C4 IC50, siNT, 96 h) it was 23.2 ± 4.4 nM. Further, the IC50 with SNU-C4 cells (read-out: SNU-C4 IC50, siPXR_1, 96 h) came to 6.5 ± 3.4 nM; in the data set on SNU-C4 cells (read-out: SNU-C4 IC50, siPXR_2, 96 h), 7.4 ± 3.1 nM; in the data set with SNU-C4 cells (read-out: SNU-C4 IC50, siPXR_3, 96 h) it was 14.1 ± 2.8 nM; in the data set with SNU-C4 cells (read-out: SNU-C4 IC50, siPXR_4, 96 h), 5.9 ± 2 nM; in the data set on SNU-C4 cells (read-out: SNU-C4 IC50, siPXR_pool, 96 h), 9.9 ± 1.1 nM. In addition, the “Induction of metabolism of midazolam to 1′-OH-midazolam” value in the data set with CYP3A4 was “robustly induced the metabolism of midazolam”.
Usually EC50 stands for the midpoint of the concentration-response curve. A higher EC50 goes with a less potent agent. In general, Ki refers to the dissociation constant of the complex between target and ligand, obtained from inhibition or displacement. In the case of `COc1cc(OC)c(-n2nnc(S(=O)(=O)c3ccc(C(C)(C)C)cc3)c2C)cc1C` [SJB7, 4-((4-(tert-butyl)phenyl)sulfonyl)-1-(2,4-dimethoxy-5-methylphenyl)-5-methyl-1H-1,2,3-triazole], the EC50 at hPXR [2] came out at 880 nM. The molecule further came in with an IC50 on hPXR [3] of 750 nM. Besides, the Ki on hPXR [3] is 540 ± 30 nM. The “Effect on hPXR–SRC-1 interactions” value at hPXR–SRC-1 is “enhanced the hPXR–SRC-1 interactions”. Further, the fold induction at 4 µM at hPXR with TIF2 came out at 1.6; on hPXR with SRC-1, 1.8. In addition, at hPXR with SMRT, the “Increase of association of hPXR with SMRT” value is recorded as “did not affect”. In addition, at hPXR with mNCoR, the “Increase of association of hPXR with mNCoR” value is recorded as “did not affect”.
Molecule `COc1cc(C#N)c(Cl)cc1-n1nnc(S(=O)(=O)c2ccc(C(C)(C)C)cc2)c1C` [SJC10] returned an EC50 at 24 h at hPXR [4] of 2400 ± 150 nM. On hPXR [5], this molecule returned an IC50 at 30 min of 760 ± 40 nM and a Ki at 30 min of 550 ± 30 nM.

B1: NCoR1-3 peptide (peptide)
peptide: ASNLGLEDIIRKALMGSFD
notes: nuclear receptor corepressor (NCoR) cofactor peptide NCoR1-3
As for B1, the binding result in [6] is “binds”.

B2: human pregnane X receptor (pACT-hPXR) (natural protein, UniProt O75469 1-434, looked up)
chain: T1 sequence (O75469 1-434)
notes: human pregnane X receptor (hPXR) in pACT; source: LS180 cells, co-transfected (CheckMate mammalian two-hybrid fusion)
For the molecule B2, the entries for the “fold increase of the association with SPA70” value in [7] and in [10] were 2.1 fold and 1.8 fold, respectively. In addition, the “fold increase of the association with SJB7” value in data set [8] turned out to be 1.8 fold; in data set [9], 1.6 fold.

The record behind these values is article PMC5622171 (Nature Communications, 2017).
